# Assay results from patent US8192962B2, “Processes for detecting toxic substances” (Daikin Industries, Ltd., priority 2001, dated 2012).
# System: Mitochondria-located protein genes
# Assay: DNA chip mRNA expression in yeast, mitochondria-located protein genes (Table 2)
# Assay type: cell-based, Saccharomyces cerevisiae S288C
# Conditions: cells incubated two hours with the chemical substance
# Procedure, shortened: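 Chemical exposure: 2 h, log-phase S. cerevisiae S288C, YPD, 25° C., dose set to inhibit growth without death. Profiling: mRNA labeled by reverse transcription with Cy3- or Cy5-dUTP, hybridized to whole-genome array. Output: fluorescence ratio against untreated culture.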
smiles,measurement,setting,value
"[Cl][Pb][Cl] [(4), PbCl2]",The level of expressed mRNA in the presence of chemical substance/The level of expressed mRNA in the absence of chemical substance,yeast gene YKL003C,1.8
same,The level of expressed mRNA in the presence of chemical substance/The level of expressed mRNA in the absence of chemical substance,yeast gene YKL016C,1.7
same,The level of expressed mRNA in the presence of chemical substance/The level of expressed mRNA in the absence of chemical substance,yeast gene YKL141W,1.7
same,The level of expressed mRNA in the presence of chemical substance/The level of expressed mRNA in the absence of chemical substance,yeast gene YKL142W,1.4
same,The level of expressed mRNA in the presence of chemical substance/The level of expressed mRNA in the absence of chemical substance,yeast gene YKL148C,0.7
same,The level of expressed mRNA in the presence of chemical substance/The level of expressed mRNA in the absence of chemical substance,yeast gene YKL170W,1.9
same,The level of expressed mRNA in the presence of chemical substance/The level of expressed mRNA in the absence of chemical substance,yeast gene YKL194C,1.6
same,The level of expressed mRNA in the presence of chemical substance/The level of expressed mRNA in the absence of chemical substance,yeast gene YKR066C,0.7
same,The level of expressed mRNA in the presence of chemical substance/The level of expressed mRNA in the absence of chemical substance,yeast gene YLL041C,1.0
same,The level of expressed mRNA in the presence of chemical substance/The level of expressed mRNA in the absence of chemical substance,yeast gene YLR038C,2.1
same,The level of expressed mRNA in the presence of chemical substance/The level of expressed mRNA in the absence of chemical substance,yeast gene YLR259C,1.6
same,The level of expressed mRNA in the presence of chemical substance/The level of expressed mRNA in the absence of chemical substance,yeast gene YLR295C,1.7
same,The level of expressed mRNA in the presence of chemical substance/The level of expressed mRNA in the absence of chemical substance,yeast gene YLR304C,0.7
same,The level of expressed mRNA in the presence of chemical substance/The level of expressed mRNA in the absence of chemical substance,yeast gene YLR348C,1.2
same,The level of expressed mRNA in the presence of chemical substance/The level of expressed mRNA in the absence of chemical substance,yeast gene YLR395C,1.9
same,The level of expressed mRNA in the presence of chemical substance/The level of expressed mRNA in the absence of chemical substance,yeast gene YML054C,3.4
same,The level of expressed mRNA in the presence of chemical substance/The level of expressed mRNA in the absence of chemical substance,yeast gene YML120C,1.9
same,The level of expressed mRNA in the presence of chemical substance/The level of expressed mRNA in the absence of chemical substance,yeast gene YML129C,1.2
same,The level of expressed mRNA in the presence of chemical substance/The level of expressed mRNA in the absence of chemical substance,yeast gene YMR023C,1.9
same,The level of expressed mRNA in the presence of chemical substance/The level of expressed mRNA in the absence of chemical substance,yeast gene YMR035W,1.7
same,The level of expressed mRNA in the presence of chemical substance/The level of expressed mRNA in the absence of chemical substance,yeast gene YMR083W,1.1
same,The level of expressed mRNA in the presence of chemical substance/The level of expressed mRNA in the absence of chemical substance,yeast gene YMR089C,0.9
same,The level of expressed mRNA in the presence of chemical substance/The level of expressed mRNA in the absence of chemical substance,yeast gene YMR152W,0.9
same,The level of expressed mRNA in the presence of chemical substance/The level of expressed mRNA in the absence of chemical substance,yeast gene YMR203W,1.4
same,The level of expressed mRNA in the presence of chemical substance/The level of expressed mRNA in the absence of chemical substance,yeast gene YMR267W,0.9
same,The level of expressed mRNA in the presence of chemical substance/The level of expressed mRNA in the absence of chemical substance,yeast gene YNL055C,2.0
same,The level of expressed mRNA in the presence of chemical substance/The level of expressed mRNA in the absence of chemical substance,yeast gene YNL071W,1.5
same,The level of expressed mRNA in the presence of chemical substance/The level of expressed mRNA in the absence of chemical substance,yeast gene YNL073W,1.7
same,The level of expressed mRNA in the presence of chemical substance/The level of expressed mRNA in the absence of chemical substance,yeast gene YNL104C,0.9
same,The level of expressed mRNA in the presence of chemical substance/The level of expressed mRNA in the absence of chemical substance,yeast gene YNL256W,0.6
same,The level of expressed mRNA in the presence of chemical substance/The level of expressed mRNA in the absence of chemical substance,yeast gene YOL096C,1.6
same,The level of expressed mRNA in the presence of chemical substance/The level of expressed mRNA in the absence of chemical substance,yeast gene YOR020C,1.7
same,The level of expressed mRNA in the presence of chemical substance/The level of expressed mRNA in the absence of chemical substance,yeast gene YOR037W,1.4
same,The level of expressed mRNA in the presence of chemical substance/The level of expressed mRNA in the absence of chemical substance,yeast gene YOR100C,1.7
same,The level of expressed mRNA in the presence of chemical substance/The level of expressed mRNA in the absence of chemical substance,yeast gene YOR130C,1.0
same,The level of expressed mRNA in the presence of chemical substance/The level of expressed mRNA in the absence of chemical substance,yeast gene YOR142W,1.0
same,The level of expressed mRNA in the presence of chemical substance/The level of expressed mRNA in the absence of chemical substance,yeast gene YOR150W,1.9
same,The level of expressed mRNA in the presence of chemical substance/The level of expressed mRNA in the absence of chemical substance,yeast gene YOR176W,0.9
same,The level of expressed mRNA in the presence of chemical substance/The level of expressed mRNA in the absence of chemical substance,yeast gene YOR187W,2.0
same,The level of expressed mRNA in the presence of chemical substance/The level of expressed mRNA in the absence of chemical substance,yeast gene YOR316C,1.5
same,The level of expressed mRNA in the presence of chemical substance/The level of expressed mRNA in the absence of chemical substance,yeast gene YPL040C,1.7
same,The level of expressed mRNA in the presence of chemical substance/The level of expressed mRNA in the absence of chemical substance,yeast gene YPL134C,1.6
same,The level of expressed mRNA in the presence of chemical substance/The level of expressed mRNA in the absence of chemical substance,yeast gene YPL135W,1.2
same,The level of expressed mRNA in the presence of chemical substance/The level of expressed mRNA in the absence of chemical substance,yeast gene YPL215W,1.5
same,The level of expressed mRNA in the presence of chemical substance/The level of expressed mRNA in the absence of chemical substance,yeast gene YPL262W,1.2
same,The level of expressed mRNA in the presence of chemical substance/The level of expressed mRNA in the absence of chemical substance,yeast gene YPR024W,1.0
same,The level of expressed mRNA in the presence of chemical substance/The level of expressed mRNA in the absence of chemical substance,yeast gene YPR037C,1.3
same,The level of expressed mRNA in the presence of chemical substance/The level of expressed mRNA in the absence of chemical substance,yeast gene YPR047W,1.5
same,The level of expressed mRNA in the presence of chemical substance/The level of expressed mRNA in the absence of chemical substance,yeast gene YPR067W,0.9
same,The level of expressed mRNA in the presence of chemical substance/The level of expressed mRNA in the absence of chemical substance,yeast gene YPR134W,1.7
